Consider 1 compound from patent US20170029451A1, “BRANCHED CHAIN ACYCLIC NUCLEOSIDE PHOSPHONATE ESTERS AND METHODS OF SYNTHESIS AND USES THEREOF” (CHIMERIX, INC., priority 2013, published 2017).

Where two headings read alike, the source gives them in different places.

The nature of series [1]: Cytotoxicity (CC50) in MT4 cells. The format is cell-based. As to conditions: human. The protocol: Costar 96-well tissue culture plates were seeded with 5,000 MT4 cells (NIH AIDS Reagents Program)/well in RPMI (Lonza, Cat 12-11F) containing 10% Hyclone Standard Fetal Bovine Serum (FBS, Cat 5H30088.03), 1% Hyclone Penicillin and Streptomycin (Cat SV30010), and 2 mM Lonza L-Glutamine (Cat 17-605E). Outer wells were not used to minimize the edge-effect produced by extended incubations. Serial dilutions of test compounds were added to the cells and plates were incubated for 6 days at 37° C. in 5% CO2. After 6 days of incubation 40 μL of Cell Titer 96® Aqueous MTS Reagent (Promega, G111) was added as directed by manufacturer to the 200 μL media in each well and incubated at 37° C. until the untreated-cell controls developed an 490 nm absorbance between 1.1 and 1.8. The final absorbance readings were read using a BioTek Synergy 2, and Gen 5 software (BioTek Instruments, Inc.) was used to calculate the concentration which inhibited MT4 cells by 50% (CC50).

The nature of series [2]: Cytotoxicity in MEF cells. In kind it is cell-based. As to conditions: mouse, cell line MEF (MCMV row).
The nature of series [3]: CellTiter-Glo cytotoxicity assay in Akata cells. The conditions noted are these: human.
In series [4] the test system is Influenza virus B/FL/4/2006. In words: microbe, parasite or virus in culture. The format is cell-based. The conditions noted are these: unidentified influenza virus, MDCK, read-out: B/FL/4/2006 (EC50, μM).
Series [5] has as its system Herpes Simplex Virus 1 (Strain E-377). In words: Plaque reduction assay, HSV-1 in human foreskin fibroblast cells. In kind it is cell-based. As to conditions: Human alphaherpesvirus 1; Strain E-377, human foreskin fibroblast cells. On the technique in general: Plaque reduction counts the foci of infection that form in a cell layer.
Another series concerns HCMV (Strain AD169). Kind of series: Plaque reduction assay, HCMV AD169 in human foreskin fibroblast cells. The format is cell-based, Human Cytomegalovirus (HCMV). The conditions noted are these: for EC50: Human betaherpesvirus 5, AD169, Fibroblast.
The nature of another series: in vitro. As to conditions: human.
The next series relates to MCMV. In words: MCMV antiviral activity in MEF cells. As to conditions: Virus MCMV, cell line MEF. In kind it is cell-based.
The test system of another series is HCV. In words: HCV antiviral activity in Huh cells. In kind it is cell-based. The conditions noted are these: Hepatitis C virus, cell line Huh.
The test system of series [6] is Vaccinia Virus (Strain Copenhagen). Kind of series: microbe, parasite or virus in culture. The format is cell-based. The conditions noted are these: Orthopoxvirus vaccinia, Fibroblast, read-out: VACV EC50, μM.
The test system of a further series is Epstein-Barr virus. Kind of series: DNA Hybridization Assay for EBV in Akata cells. The conditions noted are these: human gammaherpesvirus 4, read-out: Efficacy DNA Hybridization Assay (EC50). The format is cell-based. The protocol:
Akata cells latently infected with EBV were obtained from John Sixbey. The GS strain of HHV-6A was obtained through the NIH AIDS Research and Reference Reagent Program.
Each experiment that evaluated the antiviral activity of the compounds included both positive and negative control compounds to ensure the performance of each assay. Concurrent assessment of cytotoxicity was also performed for each study at equivalent levels of compound exposure. When sufficient material was available, multiple assays were performed for each compound evaluation to obtain statistical data.
Assays for EBV were performed in Akata cells that were induced to undergo a lytic infection with 50 μg/ml of a goat anti-human IgG antibody by standard methods. Experimental compounds were diluted in round bottom 96-well plates to yield concentrations ranging from 20 to 0.016 μM. Akata cells were added to the plates at a concentration of 4×10^4 cells per well and incubated for 72 h. For HHV-6 assays, compounds were serially diluted in 96-well plates then 1×10^4 uninfected HSB-2 or Molt-3 cells were added to each well. Infection was initiated by adding HHV-6A infected HSB-2 cells, or HHV-6B infected Molt-3 cells, at a ratio of approximately 1 infected cell for every 10 uninfected HSB-2 cells or Molt-3 cells respectively and incubated for 7 d at 37° C. […]

Series [7] has as its system HCMV UL54 resistant mutant GDG^RP53. Kind of series: microbe, parasite or virus in culture. In kind it is cell-based, Human Cytomegalovirus (HCMV). As to conditions: Human betaherpesvirus 5, Fibroblast.
Series [8] can be described thus: Cytotoxicity in MOLT-3 cells. The conditions noted are these: human, cell line MOLT-3 (HHV-6B row). In kind it is cell-based. How it is done:
Cell viability in all assays with lymphocytes was assessed with the CellTiter-Glo Luminescent Cell Viability Assay (Promega). Briefly, assay plates were incubated at ambient temperature for 30 min then 50 µl of CellTiter-Glo reagent was added to each well and the plates were mixed for 2 min on an orbital shaker to lyse the cells. Plates were then incubated for an additional 10 min at ambient temperature and the luminescence was quantified on a luminometer. Standard methods were used to calculate drug concentrations that inhibited the proliferation of Akata, HSB-2, BCLB-1, or Molt-3 cells by 50% (CC50).

Turning to `CC(C)CCCCCCCCCCCCCCOCCCOP(=O)(O)COC(CO)Cn1ccc(=O)[nH]c1=O` (stereo not shown) [Compound 12], the CC50 at 6 days in series [1] (MT4 cells (Table 7), read-out: MT4 CC50) amounted to 25.6 µM; in [1] (Mean XC50 (Table 9), read-out: MT4 cytotoxicity CC50), 24.7 µM. For the same compound, the CC50 was 60 µM in series [2]; 18 µM in series [3]; more than 10 µM in the series “in vitro” (CPXV CC50, μM, Human Foreskin Fibroblast Cells, parallel to CPXV assay); more than 50 µM in the series “in vitro” (HCMV CC50, μM); more than 50 µM in the series “in vitro” (HSV-1 CC50, μM); 8.4 µM in series [8]. Further, the EC50 is more than 4 µM in series [4]; more than 50 µM in series [5]; 0.052 µM in the series with HCMV (Strain AD169) (Strain AD169, human foreskin fibroblast cells, read-out: HCMV EC50); approximately 0.052 µM with HCMV (Strain AD169) (Virus AD169, human foreskin fibroblast cells (Table 3), read-out: EC50); 1.6 µM in the series on MCMV; 0.57 µM with HCV. Moreover, the EC50 in series [6] was more than 10 µM; in the series with Epstein-Barr virus, more than 10 µM; in series [7] (read-out: EC50 μM, Virus GDG^RP53, human foreskin fibroblast cells) it was approximately 0.171 µM. Also, the EC90 in the series on HCMV (Strain AD169) (Human betaherpesvirus 5, Virus AD169, human foreskin fibroblast cells) turned out to be 0.15 µM; in series [7] (read-out: EC90 μM) it was 1.55 µM.

As usually defined, the EC90 is the concentration needed for an effect of 90%.
